By IC50 is commonly meant the concentration at which inhibition is half-maximal.

SMILES strings stand for the structures. Where only a bound is given, the exact number is not on record here.

In test [1] the test system is Phospho-Rb (Ser807/811) in OVCAR3 cells. Briefly: Phospho-Rb expression inhibition in OVCAR3 cells quantified by In Cell Western. The test is classed as cell-based. The note with it: Homo sapiens, OVCAR-3, 24 hours, read-out: OVCAR-3 pRb IC50. The protocol: Phospho-Rb Expression Inhibition in OVCAR3 Cells Quantified by in Cell Western
OVCAR3 cells were obtained from American Type Culture Collection (ATCC, HTB-161). OVCAR3 cells were plated in 96-well plates (VWR #10062-900, or Corning #3904) in 90 uL culture medium at a density of 20,000 cells/well in the RPM11640 growth medium containing 10% FBS and 1% Penicillin Streptomycin, and then incubated at 37° C. overnight. The following day, the test compound was administered to the cells by using 1000× compound stock solution prepared in DMSO at various concentrations. 1000× compound stock solution was first diluted in culturing medium to 10x, then 10 uL compound medium was added to each well in the cell plates. After administration of the compound, the cells were then incubated at 37° C. for 24 hours. Upon completion, the cells were washed with PBS briefly. 150 uL/well of 4% formaldehyde was added and the plates were incubated at room temperature for 20 mins. The cells were washed with PBS briefly, and permeabilized with 150 uL/well of ice cold 100% methanol for 10 mins. The cells were washed with PBS briefly and blocked with 100 uL/well LI-COR blocking buffer for 1 hr at room temperature with gentle shaking. The cells were incubated overnight at 4° C. with 50 uL primary antibody rabbit anti-Phospho-Rb (Ser807/811) (1:500, Cell Signaling, #8516) and anti-Rb (1:200, Santa Cruz, sc-73598) diluted in Intercept Blocking Buffer (LI-COR, #927-60001) containing 0.1% Tween 20. The next day, the cells were washed with 200 uL PBS containing 0.1% Tween 20, 5×5 mins at room temperature with gentle shaking, and incubated with 50 uL secondary antibody, IRDye® 800CW Goat anti-Rabbit IgG (1:1000, LI-COR, #926-32211) and IRDye® 680RD Goat anti-Mouse IgG (1:1000, LI-COR, #926-68070), in LI-COR blocking buffer with 0.2% Tween 20 for 1 hr at room temperature with gentle shaking. The cells were washed with 200 uL PBS containing 0.1% Tween 20, 5×5 mins at room temperature with gentle shaking. The cells were washed with PBS for 5 mins. 100 uL fresh PBS was added to each well and the plates were imaged on a LI-COR Odyssey CLX plate reader.

Test [2] concerns CCNE1-amplified OVCAR3 cells. Briefly: Cell growth inhibition of CCNE1-amplified OVCAR3 cells (CellTiter-Glo). The class given is cell-based. To be noted: Homo sapiens, OVCAR-3, 144 h, 6 days. The procedure:
Cell Growth Inhibition of CCNE1-Amplified OVCAR3 Cells
OVCAR3 cells were seeded in 96-well plates at 2000 cells/well in 90 μl of RPM11640 growth medium containing 10% FBS and 1% Penicillin Streptomycin, and then incubated at 37° C. overnight. The following day, the test compound was administered to the cells by using 1000× compound stock solution prepared in DMSO at various concentrations. 1000× compound stock solution was first diluted in culturing medium to 10x, then 10 uL compound medium was added to each well in the cell plates. After administration of the compound, the cells were then incubated at 37° C. for 6 days. Upon completion, the plates were equilibrated at room temperature for approximately 10 minutes. 100 ul of CellTiter-Glo® Reagent (Promega) was added to each well. The plates were then incubated at room temperature for 10 minutes and luminescence was recorded by EnSpire plate reader (PerkinElmer).

In the case of `[2H]C1([2H])Oc2cc(ccn2)Nc2[nH]nc(c2Cl)[C@H]2CC[C@H](C2)OC(=O)NC2CC1C2` [Compound 222, (1^1S,1^3R,7^1R,7^3S,E)-24-chloro-2^1H-5,10-dioxa-3,8-diaza-4(4,2)-pyridina-2(3,5)-pyrazola-1(1,3)-cyclopentana-7(1,3)-cyclobutanacyclodecaphan-9-one-6,6-d2], the IC50 in test [1] was 50 to 250 nM; in test [2], over 250 nM.
With `O=C1NCCCOc2cc(ccn2)Nc2cc([nH]n2)[C@H]2CC[C@H](C2)O1` [Compound 2, (1^1S,1^3R,Z)-2^1H-5,11-dioxa-3,9-diaza-4(4,2)-pyridina-2(3,5)-pyrazola-1(1,3)-cyclopentanacycloundecaphan-10-one], the IC50 in test [1] and in test [2] was over 250 nM each time.
Regarding `C[C@H]1CCCOc2cncc(n2)Nc2cc(n[nH]2)[C@H]2CC[C@H](C2)OC(=O)N1` [Compound 233, (1^1S,1^3R,9S,Z)-9-methyl-2^1H-5,12-dioxa-3,10-diaza-4(2,6)-pyrazina-2(3,5)-pyrazola-1(1,3)-cyclopentanacyclododecaphan-11-one], the IC50 in test [1] and in test [2] was at most 2 nM throughout.
As to `C[C@@H]1CCC(C)(C)NC(=O)O[C@@H]2CC[C@@H](C2)c2cc([nH]n2)Nc2cncc(c2)O1` [Compound 123, (1^1S,1^3R,6R,Z)-6,9,9-trimethyl-2^1H-5,12-dioxa-3,10-diaza-4(3,5)-pyridina-2(3,5)-pyrazola-1(1,3)-cyclopentanacyclododecaphan-11-one], the IC50 in test [1] and in test [2] was over 250 nM in each case.
As to `C[C@H]1CCCOc2cncc(n2)Nc2cc(n[nH]2)C2C[C@@H](F)[C@H](C2)OC(=O)N1` [Compound 242, (1^1R,1^3S,1^4R,9S,Z)-1^4-fluoro-9-methyl-2^1H-5,12-dioxa-3,10-diaza-4(2,6)-pyrazina-2(3,5)-pyrazola-1(1,3)-cyclopentanacyclododecaphan-11-one], the IC50 in test [1] was at most 2 nM.
For `O=C1NC2CC(COc3cncc(n3)Nc3[nH]nc(c3F)[C@H]3CC[C@H](C3)O1)C2` [Compound 236, (1^1S,1^3R,7^1R,7^3S,E)-2^4-fluoro-2^1H-5,10-dioxa-3,8-diaza-4(2,6)-pyrazina-2(3,5)-pyrazola-1(1,3)-cyclopentana-7(1,3)-cyclobutanacyclodecaphan-9-one], the figures for the IC50 in test [1] and in test [2] were 2 to 10 nM and 10 to 50 nM, respectively.
Regarding `C[C@@H]1NC(=O)O[C@H]2CC(C[C@H]2F)c2n[nH]c(c2F)Nc2ccnc(c2)OCCC1(F)F` [Compound 239, (1^1R,1^3S,1^4R,9S,E)-1^4,2^4,8,8-tetrafluoro-9-methyl-2^1H-5,12-dioxa-3,10-diaza-4(4,2)-pyridina-2(3,5)-pyrazola-1(1,3)-cyclopentanacyclododecaphan-11-one], the IC50 in test [1] fell in the range of 10 to 50 nM.
With `[2H]C1([2H])CC[C@H](C)NC(=O)O[C@@H]2CC[C@@H](C2)c2cc([nH]n2)Nc2cc(ncc2F)O1` [Compound 175, (1^1S,1^3R,9S,Z)-4^5-fluoro-9-methyl-2^1H-5,12-dioxa-3,10-diaza-4(4,2)-pyridina-2(3,5)-pyrazola-1(1,3)-cyclopentanacyclododecaphan-11-one-6,6-d2], the IC50 in test [1] and in test [2] was over 250 nM in each case.
With `C[C@H]1CCCOc2cncc(n2)Nc2[nH]nc(c2F)[C@H]2CC[C@H](C2)OC(=O)N1` [Compound 234, (1^1S,1^3R,9S,E)-2^4-fluoro-9-methyl-2^1H-5,12-dioxa-3,10-diaza-4(2,6)-pyrazina-2(3,5)-pyrazola-1(1,3)-cyclopentanacyclododecaphan-11-one], the results for the IC50 in test [1] and in test [2] were 2 to 10 nM and 10 to 50 nM, respectively.
The matching figures for `C[C@H]1Oc2cc(ccn2)Nc2cc(n[nH]2)[C@H]2CC[C@H](C2)OC(=O)N[C@H]2C[C@@H]1C2` [Compound 143, (1^1S,1^3R,7^1S,7^3S,6R,Z)-6-methyl-2^1H-5,10-dioxa-3,8-diaza-4(4,2)-pyridina-2(3,5)-pyrazola-1(1,3)-cyclopentana-7(1,3)-cyclobutanacyclodecaphan-9-one]: 50 to 250 nM and 50 to 250 nM.
For `O=C1NCCCO[C@H](C(F)(F)F)c2cc(ccn2)Nc2cc(n[nH]2)[C@H]2CC[C@H](C2)O1` [Compound 160, (1^1S,1^3R,5S,Z)-5-(trifluoromethyl)-2^1H-6,12-dioxa-3,10-diaza-4(4,2)-pyridina-2(3,5)-pyrazola-1(1,3)-cyclopentanacyclododecaphan-11-one], the IC50 in test [1] and in test [2] was 50 to 250 nM throughout.
With `C[C@H]1CCCOc2cc(cc(F)n2)Nc2cc(n[nH]2)[C@H]2CC[C@H](C2)OC(=O)N1` [Compound 178, (1^1S,1^3R,9S,Z)-4^6-fluoro-9-methyl-2^1H-5,12-dioxa-3,10-diaza-4(4,2)-pyridina-2(3,5)-pyrazola-1(1,3)-cyclopentanacyclododecaphan-11-one], the IC50 in test [1] was 10 to 50 nM; in test [2], 50 to 250 nM.
Turning to `C[C@@H]1NC(=O)O[C@@H]2CC(C[C@@H]2F)c2n[nH]c(c2F)Nc2ccnc(c2)OCCC1(F)F` [Compound 240, (1^1S,1^3R,1^4S,9S,E)-1^4,2^4,8,8-tetrafluoro-9-methyl-2^1H-5,12-dioxa-3,10-diaza-4(4,2)-pyridina-2(3,5)-pyrazola-1(1,3)-cyclopentanacyclododecaphan-11-one], the IC50 in test [1] lay in the range of 10 to 50 nM.
Regarding `C[C@@H]1CC23CC(C2)(C3)NC(=O)O[C@@H]2CC[C@@H](C2)c2cc(n[nH]2)Nc2cc(nc(C(F)F)c2)O1` [compound 24], the IC50 in test [1] and in test [2] was over 250 nM throughout.
For the molecule `C[C@@H]1CCC(C)(C)NC(=O)O[C@@H]2CC[C@@H](C2)c2cc([nH]n2)Nc2ccnc(c2)O1` [Compound 112, (1^1S,1^3R,6R,Z)-6,9,9-trimethyl-2^1H-5,12-dioxa-3,10-diaza-4(4,2)-pyridina-2(3,5)-pyrazola-1(1,3)-cyclopentanacyclododecaphan-11-one], the half-maximal inhibitory concentration (IC50) in test [1] is 50 to 250 nM; in test [2], over 250 nM.
`C[C@@H]1NC(=O)O[C@H]2C[C@H](C[C@H]2F)c2cc([nH]n2)Nc2ccnc(c2)OCCC1(F)F` [Compound 226, (1^1R,1^3S,1^4R,9S,Z)-1^4,8,8-trifluoro-9-methyl-2^1H-5,12-dioxa-3,10-diaza-4(4,2)-pyridina-2(3,5)-pyrazola-1(1,3)-cyclopentanacyclododecaphan-11-one]: the IC50 in test [1] lay in the range of 2 to 10 nM.
As for `C[C@H]1CCCOc2cc(ccn2)Nc2[nH]nc(c2F)C2C[C@@H](F)[C@H](C2)OC(=O)N1` [Compound 237, (1^1R,1^3S,1^4R,9S,E)-1^4,2^4-difluoro-9-methyl-2^1H-5,12-dioxa-3,10-diaza-4(4,2)-pyridina-2(3,5)-pyrazola-1(1,3)-cyclopentanacyclododecaphan-11-one], the IC50 in test [1] was 10 to 50 nM; in test [2], 50 to 250 nM.
Turning to `O=C1NC2CC(COc3cncc(n3)Nc3cc(n[nH]3)[C@H]3CC[C@H](C3)O1)C2` [Compound 235, (1^1S,1^3R,7^1R,7^3S,Z)-2^1H-5,10-dioxa-3,8-diaza-4(2,6)-pyrazina-2(3,5)-pyrazola-1(1,3)-cyclopentana-7(1,3)-cyclobutanacyclodecaphan-9-one], the IC50 in test [1] and in test [2] was at most 2 nM each time.
Regarding `C[C@@H]1NC(=O)O[C@@H]2C[C@@H](C[C@@H]2F)c2cc([nH]n2)Nc2ccnc(c2)OCCC1(F)F` [Compound 227, (1^1S,1^3R,1^4S,9S,Z)-1^4,8,8-trifluoro-9-methyl-2^1H-5,12-dioxa-3,10-diaza-4(4,2)-pyridina-2(3,5)-pyrazola-1(1,3)-cyclopentanacyclododecaphan-11-one], the IC50 in test [1] fell in the range of 10 to 50 nM.
Take `C[C@H]1CCCOc2cncc(n2)Nc2[nH]nc(c2F)C2C[C@@H](F)[C@H](C2)OC(=O)N1` [Compound 243, (1^1R,1^3S,1^4R,9S,E)-1^4,2^4-difluoro-9-methyl-2^1H-5,12-dioxa-3,10-diaza-4(2,6)-pyrazina-2(3,5)-pyrazola-1(1,3)-cyclopentanacyclododecaphan-11-one]: the IC50 in test [1] was at most 2 nM.

For the origin of these results see patent US20240317777A1, “NOVEL MACROCYCLIC AMINOPYRAZOLE COMPOUNDS AS CDK2 INHIBITORS” (Accutar Biotechnology Inc., priority 2023, published 2024).
